Laboratory results: US5972894A, “Peptides having potassium channel opener activity” (Cytran, Inc., priority 1997, dated 1999)
Residues, ends and D or L forms follow the SMILES beside them.

Columns and labels:
mice = assay: Chloroform-induced arrhythmia; type: in vivo
Procedure: Each mouse in the study was treated by intraperitoneal injection of a dose of a test or control substance 15 minutes prior to the administration of a deep chloroform anesthesia. A test or control substance was then administered to each mouse. […] Novocainamide, a known antiarrhythmic agent, served as the positive control substance and was administered to mice in the positive control group at a dose of 240 mg/kg. Physiological saline served as the negative control substance and was administered to the mice in the negative control group.
Chloroform anesthesia was administered to each mouse by placing the mouse in an airtight glass container with cotton wool soaked in 20 ml of absolute chloroform. At the moment of respiratory arrest, the mouse was removed from the jar and electrocardiogram (ECG) monitoring (standard lead II) was initiated and continued for 30 seconds. […] An antiarrhythmic activity for a particular dose of a test substance is pharmaceutically acceptable if 30% of the animals in a test group show the latter test results (i.e., namely, no sign of ventricular paroxysmal rhythm disturbances and heart rate below 100 beats per 30 seconds within 30 seconds following the respiratory arrest).

[1] = tested on: Smooth Muscle Cells of Rat Portal Vein; assay: Spontaneous contractile activity of rat portal vein smooth muscle specimens; type: cell-based; settings: 10^-6 g/ml
Procedure: Rat portal vein SMS samples were surgically isolated from random bred rats weighing 200-250 g. The suitability of each isolated rat portal vein SMS was established by measuring the spontaneous contraction response and its contractile response of the specimen to potassium chloride (KCl) as follows. Each isolated SMS was placed into an organ bath with standard Krebs-Henseleit (KH) solution at 35° C. Then, 0.5 ml of physiological saline were added into the organ bath. In this procedure, one end of the smooth muscle strip was fixed, while the other end of the muscle strip was connected with a probe which transmitted contraction-induced signals to an analog-to-digital converter. The spontaneous contraction curve for each SMS was recorded by taking repeated measurements over a 1-minute period. Next, 0.5 ml of a 600 mM solution of KCl in physiological saline was added to the SMS sample/organ bath to achieve a final concentration of 60 mM KCl. KCl induces contraction of rat portal vein tissue at a fmal tissue concentration of about 60 mM.
The KCl-induced contraction curve for each specimen sample was then recorded over the next 5-minute period. […] During this stabilization period, the spontaneous contraction curve for each SMS was verified by monitoring the data obtained from analog-to-digital converter.
To each SMS in the organ bath prepared according to Steps 2 and 3 above, 0.5 ml of physiological saline was added, and the spontaneous contraction curve was recorded for 1 minute. Each spontaneous contraction curve served as baseline (control) curve for comparison with the respective spontaneous contraction of each SMS in the presence of a test substance or reference substance.
Spontaneous contraction curve values for each SMS were recorded by making repetitive measurements of the spontaneous contractile activity of each sample at 2, 5, 10, and 15 minutes after the addition of the test or reference substance to each SMS/organ bath. Next, 0.5 ml of a solution of 600 mM solution of KCl in […] in the organ bath until a final concentration of 60 mM KCl was achieved. The contractile activity of each SMS was then measured for 5 minutes.

[2] = 0.001 mg/kg i.p. 15 min before chloroform
[3] = 0.01 mg/kg i.p. 15 min before chloroform
[4] = 0.1 mg/kg i.p. 15 min before chloroform
[5] = 1.0 mg/kg i.p. 15 min before chloroform
[6] = 10.0 mg/kg i.p. 15 min before chloroform

NCC(=O)N[C@@H](CCC(=O)O)C(=O)O [GE, L-Glycyl-L-Glutamic acid] (H-Gly-Glu-OH)
Antiarrhythmic Effect (no. animals) % (mice; [2]): 11.1%
Antiarrhythmic Effect (no. animals) abs (mice; [2]): 1
Result (mice; [2]): No effect
Antiarrhythmic Effect (no. animals) % (mice; [3]): 44.4%
Antiarrhythmic Effect (no. animals) abs (mice; [3]): 4
Result (mice; [3]): Antiarrhythmic effect
Antiarrhythmic Effect (no. animals) % (mice; [4]): 44.4%
Antiarrhythmic Effect (no. animals) abs (mice; [4]): 4
Result (mice; [4]): Antiarrhythmic effect
Antiarrhythmic Effect (no. animals) % (mice; [5]): 55.6%
Antiarrhythmic Effect (no. animals) abs (mice; [5]): 5
Result (mice; [5]): Antiarrhythmic effect
prevention of chloroform-induced ventricular arrhythmias (mice; 0.01, 0.1, 1.0, or 10.0 mg/kg): prevent the development of ventricular arrhythmias
Antiarrhythmic Effect (no. animals) % (mice; [6]): 66.7%
Antiarrhythmic Effect (no. animals) abs (mice; [6]): 6
Result (mice; [6]): Antiarrhythmic effect
effect on spontaneous contractions (amplitude and area under curve) [1]: appreciably reduced the amplitude of and area under the contraction curve
Amplitude of spontaneous contraction (% of Control) ([1]; 2 min after application): 114.93%
Area Under Curve of spontaneous contraction (% of Control) ([1]; 2 min after application): 134.77%
Amplitude of spontaneous contraction (% of Control) ([1]; 5 min after application): 75.56%
Area Under Curve of spontaneous contraction (% of Control) ([1]; 5 min after application): 87.51%
Amplitude of spontaneous contraction (% of Control) ([1]; 10 min after application): 60.37%
Area Under Curve of spontaneous contraction (% of Control) ([1]; 10 min after application): 70.07%
Amplitude of spontaneous contraction (% of Control) ([1]; 15 min after application): 63.94%
Area Under Curve of spontaneous contraction (% of Control) ([1]; 15 min after application): 75.08%
